From paper PMC3989207, “Subchronic Toxicological Study of Two Artemisinin Derivatives in Dogs” (PLoS ONE, 2014)

What was measured:
[1] = parameters: method as in PMID 11060779; conditions: cited from earlier work
[2] = system: beagle dogs; experiment: Clinical observations; format: in vivo
Experimental: (§1) The first day of treatment was regarded as day one in the study. […] Oral administration was performed about 2 h after feeding. ARM was administered by a bolus intramuscular infusion through a 25-gauge needle at a constant volume of 2 ml kg^−1 once a day into the gluteal and infraspinous muscles. Two dogs of each sex from each group were allowed to recover without further treatment for an additional 4 weeks.
All dogs were assessed once daily for mortality and toxicological or other clinical signs, including behavioral changes (such as tremor, gait impairment, balance disturbance and auditory impairment), appetite, excreta (urinalysis for specific gravity, ketone bodies and pH), balance and coordination. Standard and acceptable veterinary health care practices were used during this evaluation to ensure good health of the animals.

[3] = system: beagle dogs; experiment: Pathologic (histopathological) examination of organs, brain and cardiac conduction system; format: in vivo, dog
Experimental: as §1
Termination of treatment was scheduled to occur on weeks 4, 8 (two interim necropsies) and 13, followed by a 4-week recovery period. For pathological examinations, the animals were euthanized within 24 h of the final drug administration with sodium pentobarbital, followed by exsanguination via the femoral artery. A gross necropsy was performed, including a thorough visual examination of all the internal organs. Weights were obtained for the brain, heart, liver, spleen, lung, kidneys, adrenals, thyroid/parathyroids, thymus, pancreas and ovaries/testes/prostate, and organ-to-body weight ratios were calculated. For each animal, representative samples from approximately 48 organs and tissues were taken and fixed in neutral buffered 10% formalin, except for the sternum, which was retained in Helly’s fixative (1000 ml distilled water, 25 g potassium dichromate, 10 g sodium sulfate, 50 g mercuric chloride, 50 ml 40% formaldehyde). Histopathological sections of all samples were prepared by embedding in paraffin wax, multiple-sectioning and staining with hematoxylin and eosin (HE). Samples of the left ventricular myocardium, right lateral hepatic lobe and right kidney from two animals of each sex from each group were fixed immediately after exsanguination in 2.5% glutaraldehyde, post-fixed in 1.0% osmium tetroxide, and embedded in plastic. Ultrathin liver, kidney and heart sections were examined with a Hitachi H-600 transmission electron microscope (TEM). All other tissues were examined by light microscopy.
After removal, the cardiac conduction system, including the sinoatrial node (SAN) and atrioventricular node (AVN), were selected by the Palate method. The brain was sectioned at multiple transverse levels to obtain susceptible brain regions. To improve the definition of the brain lesions, toluidine stains were applied on selected duplicate sections, and all preparations were examined under a light microscope. For pathologic examinations, degenerative neurons were evaluated on three randomly selected brain sections. The adjacent fields of neurons in each selected section were counted using a microscope at a magnification of 200×. […] The severity of the neuropathological lesions was defined as follows: the total number of neuropathological lesions per section area yielded a severity score from 0 to 4, where 0 = unaffected, 1 = minimally affected neurons with one degenerative cell per section, 2 = two degenerative cells per section, 3 = three degenerative cells per section and 4 = multiple degenerative areas per section.

[4] = system: Dogs; parameters: method as in Classen et al., 1999 [30]; conditions: 20 mg kg^−1 per day, i.m. for 30 days, ref Classen et al., 1999 [30]; cited from earlier work
[5] = Week 4, 6 mg kg^-1 per day (ART p.o., ARM i.m.)
[6] = Week 8, 6 mg kg^-1 per day (ART p.o., ARM i.m.)
[7] = Week 13, 6 mg kg^-1 per day (ART p.o., ARM i.m.)
[8] = Week 17 (after 4-week recovery)
[9] = both treated groups, no significant differences

CO[C@H]1O[C@@H]2O[C@@]3(C)CC[C@H]4[C@H](C)CC[C@@H]([C@H]1C)[C@@]24OO3 [ARM, artemether]
solubility character [1]: fat soluble | behavioral changes ([2]; 6 mg kg^-1 per day i.m. for 13 weeks): not observed | main clinical signs ([2]; 6 mg kg^-1 per day i.m., after treatment for 4 weeks up to the end of the recovery period): skin thickening at the injection site and myonecrosis-like features | Cardiac conduction system foci (dogs affected/examined) [3, 5]: 0 | Extramedullary hematopoiesis (dogs affected/examined) [3, 5]: 2/4 | Hepatocyte necrosis (dogs affected/examined) [3, 5]: 3/4 | Inhibition of erythropoiesis (dogs affected/examined) [3, 5]: 4/4 | Neuronal necrosis (dogs affected/examined) [3, 5]: 0 | Tubular cell degeneration (dogs affected/examined) [3, 5]: 4/4 | Cardiac conduction system foci (dogs affected/examined) [3, 6]: 0 | Extramedullary hematopoiesis (dogs affected/examined) [3, 6]: 3/4 | Hepatocyte necrosis (dogs affected/examined) [3, 6]: 2/4 | Inhibition of erythropoiesis (dogs affected/examined) [3, 6]: 2/4 | Neuronal necrosis (dogs affected/examined) [3, 6]: 2/4 | Tubular cell degeneration (dogs affected/examined) [3, 6]: 3/4 | Cardiac conduction system foci (dogs affected/examined) [3, 7]: 0 | Extramedullary hematopoiesis (dogs affected/examined) [3, 7]: 1/4 | Hepatocyte necrosis (dogs affected/examined) [3, 7]: 0 | Inhibition of erythropoiesis (dogs affected/examined) [3, 7]: 2/4 | Neuronal necrosis (dogs affected/examined) [3, 7]: 4/4 | Tubular cell degeneration (dogs affected/examined) [3, 7]: 2/4 | Cardiac conduction system foci (dogs affected/examined) [3, 8]: 0 | Extramedullary hematopoiesis (dogs affected/examined) [3, 8]: 0 | Hepatocyte necrosis (dogs affected/examined) [3, 8]: 0 | Inhibition of erythropoiesis (dogs affected/examined) [3, 8]: 0 | Neuronal necrosis (dogs affected/examined) [3, 8]: 1/4 | Tubular cell degeneration (dogs affected/examined) [3, 8]: 1/4 | dogs with neuropathological abnormalities ([3]; after the 4-week recovery period, mild damage): one of the four dogs | histological examination of sternal bone marrow [3, 9]: mild inhibition of erythropoiesis and a decreased count of mature erythrocytes | spleen histology [3, 9]: extramedullary hematopoiesis was observed in the spleen | mean severity score of the lesions in the brain ([3]; score 0 (unaffected) to 4 (multiple degenerative areas per section)): 2.14 | light microscopy of liver sections ([3]; some dogs, characterized as very mild): degenerative hepatocellular changes | histopathological changes in the kidneys ([3]; vs control groups): tubular epithelium vacuolation and necrosis | dogs with neuropathological abnormalities ([3]; week 8, two of the four dogs examined): 50% | dogs with neuropathological abnormalities ([3]; week 13, four of the four dogs examined): 100% | Effect (toxicology) [4]: Axonal damage in the cerebellar roof, pontine and vestibular nuclei, and in the raphe/ paralemniscal region; hypochromic, microcytic anemia
